Reference: patent EP0646574A1, “Ketonic indane derivatives, their preparation and therapeutic application thereof” (LABORATOIRE INNOTHERA Société Anonyme, priority 1993, dated 1995)
pEC50: −log10 of the molar value.

Columns and labels:
veines saphènes de lapin = assay: contraction of isolated rabbit saphenous veins produced by KCl (40 mM); details: for pEC50: potentiation of KCl (40 mM) contractions of rabbit saphenous veins, read-out: DE50 (the source's name)
Description: L'effet contractile est mesuré in vitro : • par la force de contraction développée par des anneaux vasculaires quiescents ou stimulés (soit électriquement soit par des agents physiologiques) et maintenus dans des conditions isométriques, • par la pression développée par des réseaux vasculaires perfusés à débit constant.
Les composés de formule (1) et leurs sels éventuels augmentent la contraction des veines saphènes animales produite par la noradrénaline et la dépolarisation (solution hyperpotassique) sans affecter, dans la majorité des cas, les réponses contractiles artérielles. A titre illustratif, les composés des exemples 3, 5, 8, 11, 13, 15, 31 (10 nM à […]) augmentent de plus de 40 % (DE50 ± 0,3 microM) les contractions des veines saphènes de lapin produites par le KCl (40 mM).

[1] = free radical scavenging with DPPH as stable free radical; details: DPPH model
Description: L'effet "piégeur de radicaux libres" global est étudié in vitro par un modèle utilisant le 1,1-diphényl-2-picrylhydrazyl (DPPH) comme radical libre stable, méthode dérivée de celle décrite par Lamaison et col., Plantes Médic. et Phytothérapie, XXII, 1988, 231-234.

rat = assay: carrageenan-induced pleurisy in the rat; assay type: in vivo; details: twice i.p. 5 mg/kg, 6 hours after carrageenan injection
Description: L'activité antiinflammatoire est démontrée par la mesure de l'inhibition de l'oedème et de la migration leucocytaire après induction d'une pleurésie chez le rat par injection de carragénine dans la cavité pleurale (Almeida et col., J. Pharmacol. Exp. Therap., 1980, 214 : 74).
A titre illustratif, les composés des exemples 21, 23 administrés deux fois en i.p. à la dose de 5 mg/kg inhibent l'oedème et la migration leucocytaire dans la cavité pleurale, 6 heures après injection de carragénine dans le modèle de la pleurésie chez le rat.

[2] = tested on: hyperperméabilité vasculaire induite par le zymosan; assay: vascular hyperpermeability induced by zymosan, in vivo; details: 2 and 4 hours after per os 1 à 20 mg/kg
Description: La perméabilité vasculaire est étudiée in vivo et in vitro par la mesure de l'extravasation d'albumine ou de colorant liant l'albumine (Bleu Evans). In vivo, l'hyperperméabilité est induite par l'injection d'une solution d'histamine, de bradykinine ou de zymosan. Les modèles in vitro permettent de réaliser des hyperpressions (sur un territoire vasculaire isolé) et/ou des réactions vasculaires inflammatoires.
A titre illustratif, les composés des exemples 28, 27, 25 diminuent l'hyperperméabilité vasculaire induite par le zymosan lorsque celle-ci est mesurée 2 et 4 heures après administration per os de 1 à 20 mg/kg.

Row | pEC50 (veines saphènes de lapin) | Compound | augmentation des contractions des veines saphènes de lapin produites par le KCl (40 mM) (veines saphènes de lapin) | also measured
1 | ~6.52 | Nc1cccc(NC(=O)NN=c2c(=O)c3ccccc3c2=O)c1 [exemple 3, 2-[(3-Aminophenyl)aminocarbonylhydrazono]-2.3-dihydro1.3-dioxo-1H-indène] | > 40% | 
2 | ~6.52 | Nc1ccc(NC(=O)NN=c2c(=O)c3ccccc3c2=O)cc1 [exemple 5, 2-[(4-Aminophenyl)aminocarbonylhydrazono]-2.3-dihydro-1.3-dioxo-1H-indène] | > 40% | 
3 |  | O=C(NN=c1c(=O)c2ccccc2c1=O)Nc1ccccc1[N+](=O)[O-] [exemple 7, 2.3-Dihydro-1.3-dioxo-2-[(2-nitrophenyl)aminocarbonylhydrazono]-1H-indène] |  | effet antiradicalaire [1]: présentent un effet antiradicalaire
4 | ~6.52 | O=C(NN=c1c(=O)c2ccccc2c1=O)Nc1cccc([N+](=O)[O-])c1 [exemple 8, 2.3-Dihydro-1.3-dioxo-2-[(3-nitrophenyl)aminocarbonylhydrazono]-1H-indène] | > 40% | 
5 |  | O=C(NN=c1c(=O)c2ccccc2c1=O)Nc1ccc([N+](=O)[O-])cc1 [exemple 9, 2.3-Dihydro-1.3-dioxo-2-(4-nitrophenylaminocarbonylhydrazono)-1H-indène] |  | effet antiradicalaire [1]: présentent un effet antiradicalaire
6 | ~6.52 | O=C(NN=c1c(=O)c2ccccc2c1=O)Nc1ccccn1 [exemple 11, 2.3-Dihydro-1.3-dioxo-2-[(2-pyridyl)aminocarbonylhydrazono]-1H-indène, chlorhydrate] | > 40% | 
7 | ~6.52 | O=C(NN=c1c(=O)c2ccccc2c1=O)Nc1cccnc1 [exemple 13, 2.3-Dihydro-1.3-dioxo-2-[(3-pyridyl)aminocarbonylhydrazono]-1H-indène] | > 40% | 
8 |  | O=C(NN=c1c(=O)c2cccc(F)c2c1=O)Nc1ccccc1 [exemple 21, 2.3-Dihydro-1.3-dioxo-4-fluoro-2-(phenylaminocarbonylhydrazono)-1H-indène] |  | migration leucocytaire dans la cavité pleurale (rat): inhibent; oedème (rat): inhibent
9 |  | O=C(NN=c1c(=O)c2cccc(F)c2c1=O)Nc1cccnc1 [exemple 23, 2.3-Dihydro-1.3-dioxo-4-fluoro-2-[(3-pyridyl)aminocarbonylhydrazono]-1H-indène] |  | migration leucocytaire dans la cavité pleurale (rat): inhibent; oedème (rat): inhibent
10 |  | O=C(NN=c1c(=O)c2cccc(F)c2c1=O)Nc1ccncc1 [exemple 25, 2.3-Dihydro-1.3-dioxo-4-fluoro-2-[(4-pyridyl)aminocarbonylhydrazono]-1H-indène] |  | hyperperméabilité vasculaire induite par le zymosan [2]: diminuent
11 |  | O=C(NN=c1c(=O)c2ccc(F)cc2c1=O)Nc1ccccc1 [exemple 27, 2.3-Dihydro-1.3-dioxo-5-fluoro-2-(phenylaminocarbonylhydrazono)-1H-indène] |  | hyperperméabilité vasculaire induite par le zymosan [2]: diminuent
12 |  | O=C(NN=c1c(=O)c2ccc(F)cc2c1=O)Nc1ccc(F)cc1 [exemple 28] |  | hyperperméabilité vasculaire induite par le zymosan [2]: diminuent
13 | ~6.52 | O=C(NN=c1c(=O)c2ccc(F)cc2c1=O)Nc1ccncc1 [exemple 31, 2.3-Dihydro-1.3-dioxo-5-fluoro-2-[(4-pyridyl)aminocarbonylhydrazono]-1H-indène] | > 40% | 
